Assay results as given in ChEMBL document CHEMBL1649259, “High prevalence of CTX-M-type beta-lactamases among clinical isolates of Enterobacteriaceae in Bamako, Mali” (2009).

Legend:
Type in all cases: functional
Enterobacter cloacae [1] = experiment: Antibacterial activity against CTX-M-15 ESBL producing Enterobacter cloacae assessed as resistant isolates by disk diffusion method
Enterobacter cloacae [2] = experiment: Antibacterial activity against SHV-12 ESBL producing Enterobacter cloacae assessed as resistant isolates by disk diffusion method
Escherichia coli [3] = experiment: Antibacterial activity against CTX-M-14 ESBL producing Escherichia coli assessed as resistant isolates by disk diffusion method
Escherichia coli [4] = experiment: Antibacterial activity against CTX-M-15 ESBL producing Escherichia coli assessed as resistant isolates by disk diffusion method
Escherichia coli [5] = experiment: Antibacterial activity against CTX-M-15 and SHV-27 ESBL producing Escherichia coli assessed as resistant isolates by disk diffusion method
Escherichia coli [6] = experiment: Antibacterial activity against CTX-M-15 and SHV-12 ESBL producing Escherichia coli assessed as resistant isolates by disk diffusion method
Escherichia coli [7] = experiment: Antibacterial activity against SHV-12 ESBL producing Escherichia coli assessed as resistant isolates by disk diffusion method
Klebsiella pneumoniae [8] = experiment: Antibacterial activity against CTX-M-14 ESBL producing Klebsiella pneumoniae assessed as resistant isolates by disk diffusion method
Klebsiella pneumoniae [9] = experiment: Antibacterial activity against CTX-M-15 ESBL producing Klebsiella pneumoniae assessed as resistant isolates by disk diffusion method
Klebsiella pneumoniae [10] = experiment: Antibacterial activity against SHV-12 ESBL producing Klebsiella pneumoniae assessed as resistant isolates by disk diffusion method
Morganella morganii = experiment: Antibacterial activity against CTX-M-14 ESBL producing Morganella morganii assessed as resistant isolates by disk diffusion method
Proteus mirabilis = experiment: Antibacterial activity against CTX-M-14 ESBL producing Proteus mirabilis assessed as resistant isolates by disk diffusion method

Row | Compound | Activity (Enterobacter cloacae [1]) [%] | Activity (Enterobacter cloacae [2]) [%] | Activity (Escherichia coli [3]) [%] | Activity (Escherichia coli [4]) [%] | Activity (Escherichia coli [5]) [%] | Activity (Escherichia coli [6]) [%] | Activity (Escherichia coli [7]) [%] | Activity (Klebsiella pneumoniae [8]) [%] | Activity (Klebsiella pneumoniae [9]) [%] | Activity (Klebsiella pneumoniae [10]) [%] | Activity (Morganella morganii) [%] | Activity (Proteus mirabilis) [%]
1 | O=C(N[C@H](CO)[C@H](O)c1ccc([N+](=O)[O-])cc1)C(Cl)Cl [CHLORAMPHENICOL] | 100 | 89 | 82 | 73 | 100 | 100 | 100 | 67 | 40 | 83 | 100 | 100
2 | CCn1cc(C(=O)O)c(=O)c2cc(F)c(N3CCNCC3)cc21 [NORFLOXACIN] | 100 | 89 | 100 | 98 | 100 | 100 | 100 | 33 | 96 | 67 | 100 | 100
3 | CN(C)[C@@H]1C(O)=C(C(N)=O)C(=O)[C@@]2(O)C(O)=C3C(=O)c4c(O)cccc4[C@@](C)(O)[C@H]3C[C@@H]12 [TETRACYCLINE] | 100 | 89 | 82 | 88 | 0 | 100 | 100 | 67 | 84 | 50 | 100 | 100
4 | CCn1cc(C(=O)O)c(=O)c2ccc(C)nc21 [NALIDIXIC ACID] | 100 | 100 | 100 | 98 | 0 | 100 | 100 | 67 | 93 | 83 | 100 | 100
5 | NC[C@H]1O[C@H](O[C@H]2[C@H](O)[C@@H](O[C@H]3O[C@H](CO)[C@@H](O)[C@H](N)[C@H]3O)[C@H](N)C[C@@H]2N)[C@H](N)C[C@@H]1O [TOBRAMYCIN] | 100 | 89 | 100 | 97 | 100 | 100 | 100 | 67 | 96 | 83 | 100 | 0
6 | GENTAMICIN | 100 | 12 | 100 | 83 | 100 | 100 | 0 | 67 | 89 | 33 | 100 | 0
7 | NCC[C@H](O)C(=O)N[C@@H]1C[C@H](N)[C@@H](O[C@H]2O[C@H](CN)[C@@H](O)[C@H](O)[C@H]2O)[C@H](O)[C@H]1O[C@H]1O[C@H](CO)[C@@H](O)[C@H](N)[C@H]1O [AMIKACIN] | 0 | 78 | 0 | 17 | 0 | 0 | 100 | 0 | 20 | 50 | 100 | 0
8 | COc1cc(Cc2cnc(N)nc2N)cc(OC)c1OC [TRIMETHOPRIM] | 100 | 89 | 100 | 95 | 100 | 100 | 100 | 100 | 100 | 100 | 100 | 100
9 | O=C(O)c1cn(C2CC2)c2cc(N3CCNCC3)c(F)cc2c1=O [CIPROFLOXACIN] |  |  | 100 | 98 | 100 | 100 | 0 | 33 |  | 67 | 100 | 100
